Test system: advanced solid tumors
Assay: Tumor response per RECIST v1.1 (ORR, DCR, DOR, PFS), ITT population
Format: in vivo, human
Description: The dose-expansion period included 3 populations: dose groups in which at least one patient achieved complete response (CR) or partial response (PR) per RECIST v1.1[16] and 1 dose group higher (evaluated for safety), as well as the dose group at the maximum tolerated dose (MTD)/recommended phase II dose (RP2D). Each of these groups included those patients in the respective dose-escalation group plus a planned additional 10 patients (approximately 20 patients in the MTD/RP2D group) with BRCA^mut+ solid tumors (ovarian, breast, or prostate cancer were preferred, and ovarian cancer could be BRCA wild type). Patients received senaparib monotherapy orally QD or BID (50-mg dose only) over each 3-week cycle until disease progression or unacceptable toxicity.
Safety was assessed by recording the incidence of dose-limiting toxicities (DLTs), and the incidence, nature, severity (graded per National Cancer Institute Common Terminology Criteria for Adverse Events version 4.03 [NCI CTCAE v4.03][18]), and relatedness of treatment-emergent adverse events (TEAEs). DLTs were predefined toxicities (Supplementary Table S2) recorded over the 7 days following the single-dose administration of senaparib and during the first treatment cycle (day 1-day 21) for each dose group in the dose-escalation period only. The MTD was defined as the maximum dose at which ≤1/6 patients experienced a DLT. Senaparib PK parameters were derived from blood samples collected from patients after the single administration, and at regular intervals during the first cycle of the dose-escalation and dose-expansion periods. Plasma concentrations of senaparib were determined using high-performance liquid chromatography-tandem mass spectrometry. Tumor response was assessed every 6 weeks per RECIST v1.1,[16] recording objective response rate (ORR), disease control rate (DCR), duration of response (DOR), and progression-free survival (PFS) by dose level for all patients and for those harboring BRCA^mut+ tumors.
There was no formal sample size calculation based on statistical hypothesis testing for this study; the planned enrolment was approximately 30-60 patients across the dose-escalation and dose-expansion cohorts. The actual number in the dose-escalation cohort was adjusted based on the number of dose cohorts required for the modified Fibonacci dose-escalation design and the determined MTD. Definitions for all analysis populations (safety, DLT, PK, and efficacy [intent-to-treat, ITT]) are provided in Supplementary Table S2. No statistical tests were performed; patient demographic and baseline characteristics, safety/tolerability, PK parameters, and efficacy were evaluated descriptively. ORR and DCR and their 95% CIs were calculated for each group using the exact probability method. Kaplan-Meier statistics were used to estimate DOR and PFS, and their 95% CIs for each dose group separately. Dose linearity was explored based on the single-dose data of area under the time-concentration curve (AUC) and maximum plasma concentration (Cmax) using the power model (Y = α × dose β) for the dose range 2-80 mg on a log-transformed scale. The following criterion was used to determine whether dose proportionality was met: if the (2-sided) 90% CI for β was wholly contained within the interval (1 + log(0.5)/log(r), 1 + log(2)/log(r)), then dose proportionality was supported. Here, r was defined as the ratio of the highest to lowest dose. All data analyses were carried out using SAS EG7.1 or higher or (for PK parameters) WinNonlin 7.0 or higher.

[1] = ITT, evaluable n = 44, all doses

Structure (SMILES): O=C(c1cc(Cn2c(=O)[nH]c(=O)c3c(F)cccc32)ccc1F)N1CCN(c2ncccn2)CC1 [Senaparib]
- Patients with a reduction from baseline in tumor size (BRCA wild-type (6/18)): 33.3%
- Patients with a reduction from baseline in tumor size (BRCA^mut+ patients (13/26)): 50.0%
- Median PFS (ITT population, 95% CI, 56-255 days): 167 days
- DOR, Events (ITT, 2 mg QD n = 1): 0 n (%)
- ORR (ITT, 2 mg QD n = 1): 0 n (%)
- PFS, Events (ITT, 2 mg QD n = 1): 0 (0) n (%)
- DOR, Events (ITT, 5 mg QD n = 3): 0 n (%)
- ORR (ITT, 5 mg QD n = 3): 0 n (%)
- PFS, Events (ITT, 5 mg QD n = 3): 2 (66.7) n (%)
- PFS, Median (95% CI) (ITT, 5 mg QD n = 3): 464 (45-464) days
- Complete response (ITT, 10 mg QD n = 3): 0 n (%)
- DCR (ITT, 10 mg QD n = 3): 1 (33.3) n (%)
- DOR, Events (ITT, 10 mg QD n = 3): 0 n (%)
- ORR (ITT, 10 mg QD n = 3): 0 (0) n (%)
- PFS, Events (ITT, 10 mg QD n = 3): 3 (100) n (%)
- PFS, Median (95% CI) (ITT, 10 mg QD n = 3): 49 (47-88) days
- Partial response (ITT, 10 mg QD n = 3): 0 n (%)
- Stable disease (ITT, 10 mg QD n = 3): 1 (33.3) n (%)
- Complete response (ITT, 20 mg QD n = 5): 0 n (%)
- DCR (ITT, 20 mg QD n = 5): 2 (50.0) n (%)
- DOR, Events (ITT, 20 mg QD n = 5): 1 (50.0) n (%)
- DOR, Median (95% CI) (ITT, 20 mg QD n = 5): — (1-NR)
- ORR (ITT, 20 mg QD n = 5): 2 (50.0) n (%)
- PFS, Events (ITT, 20 mg QD n = 5): 3 (60.0) n (%)
- PFS, Median (95% CI) (ITT, 20 mg QD n = 5): 78 (39-NR) days
- Partial response (ITT, 20 mg QD n = 5): 2 (50.0) n (%)
- Stable disease (ITT, 20 mg QD n = 5): 0 n (%)
- Complete response (ITT, 40 mg QD n = 3): 0 n (%)
- DCR (ITT, 40 mg QD n = 3): 0 (0) n (%)
- DOR, Events (ITT, 40 mg QD n = 3): 0 n (%)
- ORR (ITT, 40 mg QD n = 3): 0 (0) n (%)
- PFS, Events (ITT, 40 mg QD n = 3): 2 (66.7) n (%)
- PFS, Median (95% CI) (ITT, 40 mg QD n = 3): 49 (48-NR) days
- Partial response (ITT, 40 mg QD n = 3): 0 n (%)
- Stable disease (ITT, 40 mg QD n = 3): 0 n (%)
- Complete response (ITT, 50 mg BID n = 4): 0 n (%)
- DCR (ITT, 50 mg BID n = 4): 2 (66.7) n (%)
- DOR, Events (ITT, 50 mg BID n = 4): 0 n (%)
- ORR (ITT, 50 mg BID n = 4): 1 (33.3) n (%)
- PFS, Events (ITT, 50 mg BID n = 4): 1 (25.0) n (%)
- PFS, Median (95% CI) (ITT, 50 mg BID n = 4): — (46-NR)
- Partial response (ITT, 50 mg BID n = 4): 1 (33.3) n (%)
- Stable disease (ITT, 50 mg BID n = 4): 1 (33.3) n (%)
- Complete response (ITT, 60 mg QD n = 5): 0 n (%)
- DCR (ITT, 60 mg QD n = 5): 4 (100) n (%)
- DOR, Events (ITT, 60 mg QD n = 5): 0 n (%)
- ORR (ITT, 60 mg QD n = 5): 1 (25.0) n (%)
- PFS, Events (ITT, 60 mg QD n = 5): 2 (40.0) n (%)
- PFS, Median (95% CI) (ITT, 60 mg QD n = 5): 255 (127-NR) days
- Partial response (ITT, 60 mg QD n = 5): 1 (25.0) n (%)
- Stable disease (ITT, 60 mg QD n = 5): 3 (75.0) n (%)
- Complete response (ITT, 80 mg QD n = 9): 0 n (%)
- DCR (ITT, 80 mg QD n = 9): 6 (75.0) n (%)
- DOR, Events (ITT, 80 mg QD n = 9): 4 (100) n (%)
- DOR, Median (95% CI) (ITT, 80 mg QD n = 9): 144.5 (39-211) days
- ORR (ITT, 80 mg QD n = 9): 4 (50.0) n (%)
- PFS, Events (ITT, 80 mg QD n = 9): 8 (88.9) n (%)
- PFS, Median (95% CI) (ITT, 80 mg QD n = 9): 167 (40-216) days
- Partial response (ITT, 80 mg QD n = 9): 4 (50.0) n (%)
- Stable disease (ITT, 80 mg QD n = 9): 2 (25.0) n (%)
- Complete response (ITT, 100 mg QD n = 20): 0 n (%)
- DCR (ITT, 100 mg QD n = 20): 12 (70.6) n (%)
- DOR, Events (ITT, 100 mg QD n = 20): 1 (50.0) n (%)
- DOR, Median (95% CI) (ITT, 100 mg QD n = 20): — (169-NR)
- ORR (ITT, 100 mg QD n = 20): 2 (11.8) n (%)
- PFS, Events (ITT, 100 mg QD n = 20): 8 (40.0) n (%)
- PFS, Median (95% CI) (ITT, 100 mg QD n = 20): 289 (48-NR) days
- Partial response (ITT, 100 mg QD n = 20): 2 (11.8) n (%)
- Stable disease (ITT, 100 mg QD n = 20): 10 (58.8) n (%)
- Complete response (ITT, 120 mg QD n = 4): 0 n (%)
- DCR (ITT, 120 mg QD n = 4): 1 (33.3) n (%)
- DOR, Events (ITT, 120 mg QD n = 4): 0 n (%)
- ORR (ITT, 120 mg QD n = 4): 0 (0) n (%)
- PFS, Events (ITT, 120 mg QD n = 4): 3 (75.0) n (%)
- PFS, Median (95% CI) (ITT, 120 mg QD n = 4): 153 (44-258) days
- Partial response (ITT, 120 mg QD n = 4): 0 n (%)
- Stable disease (ITT, 120 mg QD n = 4): 1 (33.3) n (%)
- Complete response (ITT, Total N = 57): 0 n (%)
- DCR (ITT, Total N = 57): 28 (63.6) n (%)
- DOR, Events (ITT, Total N = 57): 6 (60.0) n (%)
- DOR, Median (95% CI) (ITT, Total N = 57): 169 (1-NR) days
- ORR (ITT, Total N = 57): 10 (22.7) n (%)
- PFS, Events (ITT, Total N = 57): 32 (56.1) n (%)
- PFS, Median (95% CI) (ITT, Total N = 57): 167 (56-255) days
- Partial response (ITT, Total N = 57): 10 (22.7) n (%)
- Stable disease (ITT, Total N = 57): 18 (40.9) n (%)
- Disease control rate (DCR) [1]: 63.6%
- Objective response rate (ORR) [1]: 22.7%
- Stable disease, patients [1]: 40.9%
- Median DOR (ITT, 95% CI, 1-not reached): 169 days
- Doses at which antitumor activity was observed (in vivo): ≥ 20 mg QD
- Patients with a decrease from baseline in tumor size (non-ovarian cancers (6/20)): 30.0%
- Patients with a decrease from baseline in tumor size (ovarian cancer (13/24)): 54.2%
- ORR (patients with breast cancer (3/12)): 25.0%
- ORR (patients with ovarian cancer (5/25)): 20.0%
- ORR (patients with prostate cancer (1/4)): 25.0%

— article PMC10712727, “Safety, Tolerability, and Pharmacokinetics of Senaparib, a Novel PARP1/2 Inhibitor, in Chinese Patients With Advanced Solid Tumors: A Phase I Trial” (The Oncologist, 2023)
